# Laboratory results taken from patent publication US9932637B2, “Genetic polymorphisms associated with cardiovascular disorders and drug response, methods of detection and uses thereof” (CELERA CORPORATION, priority 2003, dated 2018).
# Tested on: patients with prior myocardial infarction (CARE study)
# Assay: CARE: association of SNPs with pravastatin treatment in cardiovascular events prevention (logistic regression, odds ratio pravastatin vs placebo by genotype; Table 8)
# Type: in vivo, human
# Conditions: All Patients; for Coronary Artery Bypass or Revascularization, n/total (%) / Total Coronary Heart Disease Events, n/total (%) / Fatal/Non-fatal Atherosclerotic CV Disease, n/total (%) / Hosp. for Cardiovascular Disease, n/total (%) / Total Cardiovascular Disease Events, n/total (%) / Fatal/Non-fatal MI (def & prob), n/total (%) / Fatal CHD/Definite Non-fatal MI, n/total (%) / Non-fatal MI (def & prob), n/total (%): Prava
# Excerpt: In order to identify genetic markers associated with acute coronary events (e.g. MI, stroke, unstable angina, congestive heart failure, etc.) or response to statin treatment for the prevention of coronary events, samples from the Cholesterol and Recurrent Events (CARE) study (a randomized multicentral double-blinded trial on secondary prevention of acute coronary events with pravastatin) (Sacks et al., 1991, Am. J. Cardiol. 68: 1436-1446) were genotyped. A well-documented myocardial infarction (MI) was one of the enrollment criteria for entry into the CARE study. Patients were enrolled in the CARE trial from 80 participating study centers. […] Patients were randomized to receive either 40 mg of pravastatin once daily or a matching placebo. The primary endpoint of the trial was death from coronary heart disease and the median duration of follow-up was 5.0 years (range, 4.0 to 6.2 years). […] Secondary endpoints of other related cardiovascular or metabolic disease events, and changes in clinical variables were also recorded in pravastatin-treated and placebo groups. All individuals included in the study had signed a written informed consent form and the study protocol was approved by the respective Institutional Review Boards (IRBs).
# For genotyping SNPs in CARE patient samples, DNA was extracted from blood samples using conventional DNA extraction methods such as the QIA-amp kit from Qiagen. Genotypes were obtained on an ABI PRISM® 7900HT Sequence Detection PCR system (Applied Biosystems, Foster City, Calif.) by kinetic allele-specific PCR, similar to the method described by Germer et al. (Germer S., Holland M. J., Higuchi R. 2000, Genome Res. 10: 258-266).
# Statistical analysis for association of SNPs with pravastatin treatment in cardiovascular events prevention (Table 8) was carried out using an overall logistic regression model that included an intercept, a parameter for the effect of a genotype containing two rare alleles versus a genotype containing no rare alleles, a parameter for the effect of a genotype containing one rare allele versus a genotype containing no rare alleles, a parameter for the effect of use of pravastatin versus the use of placebo, and parameters for the interaction effects between SNP genotypes and pravastatin use. The test of the overall model is a chi-square test with two degrees of freedom for analyses containing all three genotypes, and one degree of freedom for analyses containing two genotypes.
# Effect sizes were estimated through odds ratios (pravastatin group versus placebo) for carriers of each genotype (groups of 0, 1, and 2 minor allele carriers). The effect was considered to be significant if p-value for testing whether any of the interactions between SNP genotypes and pravastatin use were <0.05. […] Odds ratios less than one indicate that the specific SNP allele has a protective effect and odds ratios greater than one indicate that the specific SNP allele has an adverse effect.
# [1] = HLA-DPB1 hCV8851085, Coronary Artery Bypass or Revascularization
# [2] = HLA-DPB1 hCV8851085, Fatal/Non-fatal Atherosclerotic CV Disease
# [3] = HLA-DPB1 hCV8851085, Fatal/Non-fatal MI (def & prob)
# [4] = HLA-DPB1 hCV8851085, Hosp. for Cardiovascular Disease
# [5] = HLA-DPB1 hCV8851085, Total Cardiovascular Disease Events
# [6] = HLA-DPB1 hCV8851085, Total Coronary Heart Disease Events
# [7] = HLA-DPB1 hCV25651174, 2 Rare Alleles, n/total 20/144
structure (smiles),measurement,setting,value
CC[C@H](C)C(=O)O[C@H]1C[C@H](O)C=C2C=C[C@H](C)[C@H](CC[C@@H](O)C[C@@H](O)CC(=O)O)[C@H]21 [pravastatin],"Coronary Artery Bypass or Revascularization, n/total (%)","HLA-DPB1 hCV8851085, 0 Rare Alleles, n/total 129/919",(14.0%)
same,"Total Coronary Heart Disease Events, n/total (%)","HLA-DPB1 hCV8851085, 0 Rare Alleles, n/total 263/919",(28.6%)
same,"Fatal/Non-fatal Atherosclerotic CV Disease, n/total (%)","HLA-DPB1 hCV8851085, 0 Rare Alleles, n/total 301/919",(32.8%)
same,"Hosp. for Cardiovascular Disease, n/total (%)","HLA-DPB1 hCV8851085, 0 Rare Alleles, n/total 363/919",(39.5%)
same,"Total Cardiovascular Disease Events, n/total (%)","HLA-DPB1 hCV8851085, 0 Rare Alleles, n/total 374/919",(40.7%)
same,"Fatal/Non-fatal MI (def & prob), n/total (%)","HLA-DPB1 hCV8851085, 1 Rare Allele, n/total 53/521",(10.2%)
same,"Coronary Artery Bypass or Revascularization, n/total (%)","HLA-DPB1 hCV8851085, 1 Rare Allele, n/total 72/521",(13.8%)
same,"Total Coronary Heart Disease Events, n/total (%)","HLA-DPB1 hCV8851085, 1 Rare Allele, n/total 151/521",(29.0%)
same,"Fatal/Non-fatal Atherosclerotic CV Disease, n/total (%)","HLA-DPB1 hCV8851085, 1 Rare Allele, n/total 174/521",(33.4%)
same,"Hosp. for Cardiovascular Disease, n/total (%)","HLA-DPB1 hCV8851085, 1 Rare Allele, n/total 209/521",(40.1%)
same,"Total Cardiovascular Disease Events, n/total (%)","HLA-DPB1 hCV8851085, 1 Rare Allele, n/total 214/521",(41.1%)
same,"Fatal/Non-fatal MI (def & prob), n/total (%)","HLA-DPB1 hCV8851085, 2 Rare Alleles, n/total 11/73",(15.1%)
same,"Coronary Artery Bypass or Revascularization, n/total (%)","HLA-DPB1 hCV8851085, 2 Rare Alleles, n/total 17/73",(23.3%)
same,"Total Coronary Heart Disease Events, n/total (%)","HLA-DPB1 hCV8851085, 2 Rare Alleles, n/total 26/73",(35.6%)
same,"Fatal/Non-fatal Atherosclerotic CV Disease, n/total (%)","HLA-DPB1 hCV8851085, 2 Rare Alleles, n/total 29/73",(39.7%)
same,"Hosp. for Cardiovascular Disease, n/total (%)","HLA-DPB1 hCV8851085, 2 Rare Alleles, n/total 33/73",(45.2%)
same,"Total Cardiovascular Disease Events, n/total (%)","HLA-DPB1 hCV8851085, 2 Rare Alleles, n/total 35/73",(47.9%)
same,"Prava vs. Placebo Odds Ratio, 0 Rare Alleles",[1],0.68
same,"Prava vs. Placebo Odds Ratio, 1 Rare Alleles",[1],0.60
same,"Prava vs. Placebo Odds Ratio, 2 Rare Alleles",[1],3.54
same,"Prava vs. Placebo Odds Ratio, 0 Rare Alleles",[2],0.70
same,"Prava vs. Placebo Odds Ratio, 1 Rare Alleles",[2],0.79
same,"Prava vs. Placebo Odds Ratio, 2 Rare Alleles",[2],2.12
same,"Prava vs. Placebo Odds Ratio, 0 Rare Alleles",[3],0.57
same,"Prava vs. Placebo Odds Ratio, 1 Rare Alleles",[3],0.75
same,"Prava vs. Placebo Odds Ratio, 2 Rare Alleles",[3],2.07
same,"Prava vs. Placebo Odds Ratio, 0 Rare Alleles",[4],0.71
same,"Prava vs. Placebo Odds Ratio, 1 Rare Alleles",[4],0.74
same,"Prava vs. Placebo Odds Ratio, 2 Rare Alleles",[4],1.79
same,"Prava vs. Placebo Odds Ratio, 0 Rare Alleles",[5],0.70
same,"Prava vs. Placebo Odds Ratio, 1 Rare Alleles",[5],0.74
same,"Prava vs. Placebo Odds Ratio, 2 Rare Alleles",[5],1.77
same,"Prava vs. Placebo Odds Ratio, 0 Rare Alleles",[6],0.72
same,"Prava vs. Placebo Odds Ratio, 1 Rare Alleles",[6],0.76
same,"Prava vs. Placebo Odds Ratio, 2 Rare Alleles",[6],2.25
same,"Fatal CHD/Definite Non-fatal MI, n/total (%)","HLA-DPB1 hCV25651174, 0 Rare Alleles, n/total 58/733",(7.9%)
same,"Non-fatal MI (def & prob), n/total (%)","HLA-DPB1 hCV25651174, 0 Rare Alleles, n/total 63/733",(8.6%)
same,"Fatal/Non-fatal MI (def & prob), n/total (%)","HLA-DPB1 hCV25651174, 0 Rare Alleles, n/total 65/733",(8.9%)
same,"Coronary Artery Bypass or Revascularization, n/total (%)","HLA-DPB1 hCV25651174, 0 Rare Alleles, n/total 103/733",(14.1%)
same,"Total Coronary Heart Disease Events, n/total (%)","HLA-DPB1 hCV25651174, 0 Rare Alleles, n/total 207/733",(28.2%)
same,"Fatal/Non-fatal Atherosclerotic CV Disease, n/total (%)","HLA-DPB1 hCV25651174, 0 Rare Alleles, n/total 230/733",(31.4%)
same,"Hosp. for Cardiovascular Disease, n/total (%)","HLA-DPB1 hCV25651174, 0 Rare Alleles, n/total 282/733",(38.5%)
same,"Total Cardiovascular Disease Events, n/total (%)","HLA-DPB1 hCV25651174, 0 Rare Alleles, n/total 291/733",(39.7%)
same,"Non-fatal MI (def & prob), n/total (%)","HLA-DPB1 hCV25651174, 1 Rare Allele, n/total 55/632",(8.7%)
same,"Fatal/Non-fatal MI (def & prob), n/total (%)","HLA-DPB1 hCV25651174, 1 Rare Allele, n/total 61/632",(9.7%)
same,"Fatal CHD/Definite Non-fatal MI, n/total (%)","HLA-DPB1 hCV25651174, 1 Rare Allele, n/total 62/632",(9.8%)
same,"Coronary Artery Bypass or Revascularization, n/total (%)","HLA-DPB1 hCV25651174, 1 Rare Allele, n/total 87/632",(13.8%)
same,"Total Coronary Heart Disease Events, n/total (%)","HLA-DPB1 hCV25651174, 1 Rare Allele, n/total 182/632",(28.8%)
same,"Fatal/Non-fatal Atherosclerotic CV Disease, n/total (%)","HLA-DPB1 hCV25651174, 1 Rare Allele, n/total 218/632",(34.5%)
same,"Hosp. for Cardiovascular Disease, n/total (%)","HLA-DPB1 hCV25651174, 1 Rare Allele, n/total 259/632",(41.0%)
same,"Total Cardiovascular Disease Events, n/total (%)","HLA-DPB1 hCV25651174, 1 Rare Allele, n/total 265/632",(41.9%)
same,"Non-fatal MI (def & prob), n/total (%)","HLA-DPB1 hCV25651174, 2 Rare Alleles, n/total 16/144",(11.1%)
same,"Fatal CHD/Definite Non-fatal MI, n/total (%)",[7],(13.9%)
same,"Fatal/Non-fatal MI (def & prob), n/total (%)",[7],(13.9%)
same,"Coronary Artery Bypass or Revascularization, n/total (%)","HLA-DPB1 hCV25651174, 2 Rare Alleles, n/total 27/144",(18.8%)
same,"Total Coronary Heart Disease Events, n/total (%)","HLA-DPB1 hCV25651174, 2 Rare Alleles, n/total 50/144",(34.7%)
same,"Fatal/Non-fatal Atherosclerotic CV Disease, n/total (%)","HLA-DPB1 hCV25651174, 2 Rare Alleles, n/total 54/144",(37.5%)
same,"Hosp. for Cardiovascular Disease, n/total (%)","HLA-DPB1 hCV25651174, 2 Rare Alleles, n/total 61/144",(42.4%)
